In assay [1] the target is T1, CXCR2 (Homo sapiens, UniProt P25025).
T1 construct: expressed in transfected cells
T1 sequence (P25025 1-360): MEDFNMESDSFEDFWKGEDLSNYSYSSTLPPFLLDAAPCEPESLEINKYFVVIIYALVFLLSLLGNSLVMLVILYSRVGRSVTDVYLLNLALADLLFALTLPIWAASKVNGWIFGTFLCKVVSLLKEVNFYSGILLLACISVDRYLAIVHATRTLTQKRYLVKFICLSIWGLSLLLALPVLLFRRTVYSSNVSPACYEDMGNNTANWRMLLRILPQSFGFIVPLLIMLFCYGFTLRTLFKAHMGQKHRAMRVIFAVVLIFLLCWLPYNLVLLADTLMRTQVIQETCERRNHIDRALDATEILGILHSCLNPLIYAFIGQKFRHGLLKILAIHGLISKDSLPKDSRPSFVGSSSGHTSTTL
The assay is described as follows: [3H]-Compound C binding assay on CXCR2 membranes. Conditions: 20 nM [3H]Compound C, FIG. 3. How it is done:
Following incubation, the plate containing the assay mixture was transferred to GF-B plates and filter-washed with cold HEPES-buffered salt solution using a Tomtec harvester. The filtration plate was allowed to air dry then 20 μl of MicroScint-0 added to each well. 96-well plate scintillation counting was performed using a TopCount instrument (Packard BioScience) for 1 minute per sample well.

The target of assay [2] is T2, human Chemokine receptor CXCR2 (Homo sapiens, UniProt P25025).
T2 construct: expressed in transfected cells
T2 sequence (P25025 1-360): T1 sequence (P25025 1-360)
The assay is described as follows: CXCR2 membrane [125I]IL-8 radioligand binding assay. Conditions: FIG. 2. The protocol:
HEK 293 cells were transfected with CXCR2 receptor using the lipofection reagent Fugene 6 (Roche). […] Stable HEK-CXCR2 transfectants were grown to approximately 80% confluence in 10-layer cell factories in DMEM medium containing 10% (v/v) foetal calf serum and glutamine (2 mM) in a humidified incubator at 37° C., 5% CO2. Cells were harvested from the flask using Accutase at 37° C. for 3 to 5 minutes.
Cells were resuspended on ice in 60 mL hypotonic buffer at a density of 2×10^7 cells/mL. Membranes were prepared on ice by homogenisaton using a polytron tissue homogenizer set at 22000 rpm. The membrane preparation was purified by sucrose gradient centrifugation. In each of 4 centrifuge tubes 15 mL of cell membranes was layered onto 10 mL 41% (w/v) sucrose solution and the tubes centrifuged at 140000 g for 1 hour at 4° C. […]
Following incubation, the plate containing the assay mixture was filter-washed with 200 μL cold HEPES-buffered salt solution using a Millipore vacuum manifold. The filtration plate was allowed to air dry then either the individual filters were punched out into polypropylene test tubes and the radioactivity measured by direct gamma counting using a Cobra II Gamma counter (Packard BioScience) for 1 minute per sample or alternatively, the whole filtration plate was placed in a carrier plate and 50 μL of MicroScint-O added to each well. […]

Assay [3] concerns the target T1, CXCR2. The experiment in a line: HEK FLIPR intracellular calcium assay, wild type CXCR2. In kind it is cell-based. Conditions: Compound A 30 nM (10 nM and 30 nM in Example 5), Compound B 100 nM. How it is done:
HEK cells, transfected with the human recombinant CXCR2 receptor, were grown to approximately 80% confluence in 225 cm^2 flasks in DMEM-Glutamax medium containing, non-essential amino acids, 10% (v/v) FCS in a humidified incubator at 37° C., 5% CO2. Cells were harvested from the flask using 10× trypsin at 37° C. for 1 to 2 minutes.
(§1) All points were reproduced in triplicate on each plate.
(In general: Calcium assays in cells follow changes in intracellular calcium, usually with a dye or a luminescent sensor.)

In another assay the target is T3, CXCR1 (Homo sapiens, UniProt P25024).
T3 sequence (P25024 1-350): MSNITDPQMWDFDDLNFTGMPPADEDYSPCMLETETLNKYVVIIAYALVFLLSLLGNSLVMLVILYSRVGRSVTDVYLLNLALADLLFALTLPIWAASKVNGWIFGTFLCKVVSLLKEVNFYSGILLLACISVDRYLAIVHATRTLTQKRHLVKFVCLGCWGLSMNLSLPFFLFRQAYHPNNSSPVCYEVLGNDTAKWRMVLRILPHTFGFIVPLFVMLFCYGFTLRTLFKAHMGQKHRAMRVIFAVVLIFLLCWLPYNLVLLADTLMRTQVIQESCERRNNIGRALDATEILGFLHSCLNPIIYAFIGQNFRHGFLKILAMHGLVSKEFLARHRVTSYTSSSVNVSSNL
The experiment in a line: Chemokine receptor panel (assays similar to Example 1 and 2), CXCR1. It counts as binding.
From the text: as §1

A further assay concerns the target T4, wild type GST (Schistosoma japonicum, UniProt P08515).
T4 construct: made in house; host or cells: E. coli
The assay is described as follows: [3H]Compound A radioligand binding to wild type GST control. Conditions: 20 nM [3H]Compound A; FIG. 21, average of three experiments.

The next assay has as its target CCR5 (Homo sapiens, UniProt P51681). The assay is described as follows: Chemokine receptor panel (assays similar to Example 1 and 2), CCR5. In kind it is binding. Conditions: CCR5, 10 uM. The protocol: (§2) Membranes (80 μL of 1×10^6 cell equivalents/mL) were then added, giving a total incubation volume of 100 μL per well. The plates were incubated for 2 hours at room temperature.
(§3) HEK 293 transfectants were seeded at 5×10^4 cells per well in 96 well poly-D lysine coated black with clear bottom plates (Becton Dickinson) and cultured for 16 h at 37° C. with an atmosphere of 5% CO2/95% air to form confluent monolayers. The following day cells were loaded with 5 μM Flura 3 AM diluted in tyrodes solution (137 mM NaCl, 10 mM HEPES, 0.441 mM KH2PO4, 2.67 mM KCl, 1.8 mM CaCL2, 1 mM MgCl2) with 6.25 mM probenecid at pH7.4, 100 μl per well and incubated at 37° C. with an atmosphere of 5% CO2/95% air for 1 h. After which the loading media was removed and the cells washed twice with PBS/HEPES solution (100 μl per well) then overlayed with 50 μl assay buffer (tyrodes buffer without probenecid). 50 μl inhibitor compound or 50 μl 0.2% (v/v) DMSO carrier diluted in assay buffer was then added per well and incubated for 30 minutes at room temperature before the addition of 50 μl 3 mM Carbachol per well. Calcium flux responses were measured using a Fluorometric Imaging Plate Reader (Molecular Devices) for 3 minutes before the addition of either IL-8 (50 μl, 1×10^−7-3×10^−11 M final concentration) or GROalpha. […] Fluorescence readings were taken every 2 seconds for a total run time of 6 minutes.

For the next assay, the target named is T5, CCR1 (Homo sapiens, UniProt P32246).
T5 sequence (P32246 1-355): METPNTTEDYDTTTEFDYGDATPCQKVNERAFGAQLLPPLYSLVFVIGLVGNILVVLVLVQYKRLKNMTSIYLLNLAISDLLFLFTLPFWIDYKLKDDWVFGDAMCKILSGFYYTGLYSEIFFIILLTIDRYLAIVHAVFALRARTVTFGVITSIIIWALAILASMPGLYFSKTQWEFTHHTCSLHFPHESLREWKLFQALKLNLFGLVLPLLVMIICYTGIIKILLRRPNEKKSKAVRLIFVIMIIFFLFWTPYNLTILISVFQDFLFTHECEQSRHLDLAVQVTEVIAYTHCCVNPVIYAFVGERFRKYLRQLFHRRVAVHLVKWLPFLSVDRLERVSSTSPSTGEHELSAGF
The assay is described as follows: Chemokine receptor panel (assays similar to Example 1 and 2), CCR1. In kind it is binding. The settings on record: CCR1, 10 uM.

A further assay concerns the target T6, CX3CR1 (Homo sapiens, UniProt P49238).
T6 sequence (P49238 1-355): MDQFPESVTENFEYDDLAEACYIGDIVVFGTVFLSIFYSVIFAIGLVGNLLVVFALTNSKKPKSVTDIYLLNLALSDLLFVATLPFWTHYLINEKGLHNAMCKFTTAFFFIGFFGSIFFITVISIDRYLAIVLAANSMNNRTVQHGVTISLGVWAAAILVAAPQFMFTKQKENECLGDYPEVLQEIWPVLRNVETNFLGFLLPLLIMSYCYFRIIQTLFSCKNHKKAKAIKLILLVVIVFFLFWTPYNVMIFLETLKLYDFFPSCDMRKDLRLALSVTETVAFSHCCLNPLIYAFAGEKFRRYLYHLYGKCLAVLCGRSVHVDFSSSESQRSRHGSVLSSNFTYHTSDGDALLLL
The assay is described as follows: biochemical.

In the next assay the target is T7, CCR4 (Homo sapiens, UniProt P51679).
T7 sequence (P51679 1-360): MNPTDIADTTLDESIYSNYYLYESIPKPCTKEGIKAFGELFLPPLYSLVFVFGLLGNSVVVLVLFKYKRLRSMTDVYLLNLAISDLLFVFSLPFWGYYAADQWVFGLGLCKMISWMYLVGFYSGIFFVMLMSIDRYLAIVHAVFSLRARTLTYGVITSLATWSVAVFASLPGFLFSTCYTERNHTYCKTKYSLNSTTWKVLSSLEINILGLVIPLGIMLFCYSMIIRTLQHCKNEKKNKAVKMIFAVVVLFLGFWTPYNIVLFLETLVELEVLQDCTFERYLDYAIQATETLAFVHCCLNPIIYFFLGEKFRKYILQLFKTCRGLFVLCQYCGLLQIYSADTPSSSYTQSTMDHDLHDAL
The assay is described as follows: Chemokine receptor panel (assays similar to Example 1 and 2), CCR4. It counts as binding. The protocol: as §2, §3

The target in assay [4] is T8, GST-CXCR2 fusion protein (human CXCR2 residues G318 to L360) (Homo sapiens, UniProt P25025).
T8 construct: made in house; host or cells: E. coli
T8 sequence (P25025 with tags, fused parts or gaps): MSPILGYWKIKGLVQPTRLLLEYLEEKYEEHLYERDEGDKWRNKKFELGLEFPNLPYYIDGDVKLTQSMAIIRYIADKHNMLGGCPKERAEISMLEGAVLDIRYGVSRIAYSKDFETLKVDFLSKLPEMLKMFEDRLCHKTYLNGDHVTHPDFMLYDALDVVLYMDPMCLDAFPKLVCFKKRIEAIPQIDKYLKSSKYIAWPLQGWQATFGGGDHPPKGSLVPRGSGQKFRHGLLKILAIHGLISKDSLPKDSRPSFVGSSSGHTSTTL
The assay is described as follows: [3H]Compound A radioligand binding to GST-CXCR2 C terminal tail. Conditions: 20 nM [3H]Compound A, FIG. 21, average of three experiments. How it is done:
An expression construct which encodes for S. Japonicum glutathione-S-transferase (GST) fused to the last 43 amino acids of human CXCR2 (residues G318 to L360) was generated by standard molecular biological techniques.
The protein was expressed in E. coli and the resulting fusion protein was purified from the cell extract via chromatography using a 5 ml GSTrap column (Amersham) which binds GST containing proteins, and eluted using 10 mM reduced glutathione in the elution buffer. At the same time GST without a CXCR2 C-terminal tail was also expressed and purified as a control. Both proteins had the excess 10 mM glutathione removed using a XK26/10 desalting column (Amersham).
Protein solutions (50 μL dilutions starting at 1.28 mg/ml) of either GST-CXCR2 fusion or wild type GST were then added, giving a total incubation volume of 200 μL per well.
A GF-B filter plate was set up containing 50 μl of 1 mg/ml gelatine in PBS in each well, which was then filtered through the plate and discarded. […] After filtering, 100 μl filtrate was transferred to a lumaplate and dried down in a 50° C. oven overnight and then counted on the TopCount instrument (Packard BioScience)

The target of the next assay is T9, CCR2b (Homo sapiens, UniProt P41597).
T9 sequence (P41597 1-360 isoform P41597-2): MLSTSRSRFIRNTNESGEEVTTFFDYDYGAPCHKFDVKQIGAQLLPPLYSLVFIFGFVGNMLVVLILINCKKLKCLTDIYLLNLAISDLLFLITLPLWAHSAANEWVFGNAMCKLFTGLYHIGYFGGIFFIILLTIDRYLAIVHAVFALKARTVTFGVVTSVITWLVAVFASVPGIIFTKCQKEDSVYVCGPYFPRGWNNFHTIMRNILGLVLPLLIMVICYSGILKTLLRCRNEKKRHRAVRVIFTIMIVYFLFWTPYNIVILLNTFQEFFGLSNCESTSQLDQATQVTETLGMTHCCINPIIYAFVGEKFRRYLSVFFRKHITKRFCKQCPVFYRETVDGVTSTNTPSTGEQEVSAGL
The experiment in a line: Chemokine receptor panel (assays similar to Example 1 and 2), CCR2b. It counts as binding.

This is an account of results in patent US20090305321A1, “Assays for Allosteric Modulators of G-Protein Coupled Receptors (GPCRs)” (ASTRAZENECA AB, priority 2005, published 2009).

T4 sequence (P08515 whole entry): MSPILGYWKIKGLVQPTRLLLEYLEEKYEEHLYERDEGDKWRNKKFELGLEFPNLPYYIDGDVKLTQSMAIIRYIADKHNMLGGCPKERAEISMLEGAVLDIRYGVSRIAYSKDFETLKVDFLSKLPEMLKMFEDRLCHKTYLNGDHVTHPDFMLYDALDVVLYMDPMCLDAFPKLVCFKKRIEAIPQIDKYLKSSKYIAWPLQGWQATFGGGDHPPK
CCR5, sequence (P51681 whole entry): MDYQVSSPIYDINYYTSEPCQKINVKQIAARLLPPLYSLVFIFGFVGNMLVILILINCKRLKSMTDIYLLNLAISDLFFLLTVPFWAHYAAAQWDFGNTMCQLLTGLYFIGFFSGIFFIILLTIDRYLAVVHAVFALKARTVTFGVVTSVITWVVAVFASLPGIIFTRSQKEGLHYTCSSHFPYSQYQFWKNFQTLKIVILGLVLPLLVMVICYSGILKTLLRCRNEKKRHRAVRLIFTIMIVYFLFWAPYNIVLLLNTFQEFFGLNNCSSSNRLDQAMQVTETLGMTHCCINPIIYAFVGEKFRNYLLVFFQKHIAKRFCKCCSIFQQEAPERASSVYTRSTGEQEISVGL
Procedure for wild type GST: Protein solutions (50 μL dilutions starting at 1.28 mg/ml) of either GST-CXCR2 fusion or wild type GST were then added, giving a total incubation volume of 200 μL per well. The plates were incubated for 2 hours at room temperature.
A GF-B filter plate was set up containing 50 μl of 1 mg/ml gelatine in PBS in each well, which was then filtered through the plate and discarded. 100 μl filter mix (160 mg/ml charcoal (dextran coated) in PBS containing 1 mg/ml gelatine) was then filtered through the plate and then 150 μl assay mix was then filtered through the prepared filter plate (The charcoal catches the excess un-bound compound). After filtering, 100 μl filtrate was transferred to a lumaplate and dried down in a 50° C. oven overnight and then counted on the TopCount instrument (Packard BioScience)

Regarding `C[C@H](CO)Nc1nc(SCc2ccccc2)nc2nc(N)sc12` [Compound C], the “binding to CXCR2 / displacement of radio-labelled Compound C” value on CXCR2 [1] was “can bind to CXCR2”. The “inhibition of [125I]-IL-8 binding” value in assay [2] is on record as “able to inhibit the binding”.
On to `NS(=O)(=O)c1c(Cl)ccc(NC(=O)Nc2cccc(Cl)c2Cl)c1O` [Compound B], for which the “activity (inhibition of IL-8-induced calcium release)” value on CXCR2 [3] is on record as “active against CXCR2”.
Regarding “IL-8: C-X-C chemokine, endogenous CXCR2/CXCR1 agonist ligand; non-radioactive IL-8 used as competitor”, the “inhibition of [125I]-IL-8 binding” value in assay [2] is listed as “able to inhibit the binding”.
For the compound `C[C@H](CO)Nc1nc(SCc2cccc(Cl)c2F)nc2[nH]c(=O)sc12` [Compound A], the IC50 (usually the concentration that inhibits the measured activity by half) was 251 nM at CXCR1, 251 nM against CX3CR1, 7940 nM on CCR4 and 158 nM against CCR2b. Further, on wild type GST, the “compound binding to wild type GST control protein” value was “minimal compound binding”. Further, the inhibition (commonly the relative decrease from the control value, in per cent) at 10 µM was 72% on CCR5 and 62% against CCR1. The “radiolabelled binding to GST-CXCR2 fusion protein on addition of excess cold compound” value in assay [4] is on record as “decrease in radiolabelled binding”. Further, on CXCR2 [3], the “activity (inhibition of IL-8-induced calcium release)” value is recorded as “active against CXCR2”.
